Assay results taken from US12655116B2, “Substituted isophthalic acid diamides” (Bayer Aktiengesellschaft, priority 2020, dated 2026).

Legend:
MATIN [1] = assay: Pre-emergence herbicidal action against MATIN; format: in vivo, Matricaria inodora; conditions: Tripleurospermum inodorum, 504 h; for pest or weed control at 20 g/ha: dosage 20 g/ha; for pest or weed control at 80 g/ha: dosage 80 g/ha
Summary of the method: (§1)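 Herbicidal effect was assessed 3 weeks after treatment by visual comparison with untreated controls, 100% denoting dead plants. Aqueous WP or EC preparations had been applied at 600 to 800 l/ha with 0.2% wetting agent to the soil covering freshly sown seeds.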

AVEFA = assay: Pre-emergence herbicidal action against AVEFA; format: in vivo, Avena fatua; conditions: Avena fatua, 504 h; 80 g/ha, pre-emergence
Summary of the method: as §1

ABUTH [2] = assay: Pre-emergence herbicidal action against ABUTH; format: in vivo, Abutilon theophrasti; conditions: Abutilon theophrasti, 504 h; for pest or weed control at 80 g/ha: scored visually after 3 weeks vs untreated controls (100% = plants have died, 0% = like control plants); for pest or weed control at 20 g/ha: dosage 20 g/ha, scored visually after 3 weeks vs untreated controls, 100% = plants have died, 0% = like control plants, read-out: Pre-emergence action against ABUTH (herbicidal activity in percent)
Summary of the method: as §1

AMARE [3] = assay: Post-emergence herbicidal action against AMARE; format: in vivo, Amaranthus retroflexus; conditions: Amaranthus retroflexus, 504 h, 20 g/ha, visual assessment about 3 weeks after treatment, 100% = plants have died, 0% = like control plants
Summary of the method: (§2)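 Post-emergence greenhouse test; one-leaf stage, 2–3 wk post-sowing, sandy loam. Foliar spray of WP/EC in water, 600–800 l/ha, +0.2% wetting agent. Visual % action at ~3 wk vs untreated (100% = plants dead).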

ECHCG [4] = assay: Post-emergence herbicidal action against ECHCG; format: in vivo, Echinochloa crus-galli; conditions: Echinochloa crus-galli, 504 h; for pest or weed control at 5 g/ha: dosage 5 g/ha; for pest or weed control at 20 g/ha: dosage 20 g/ha
Summary of the method: as §2

ECHCG [5] = assay: Pre-emergence herbicidal action against ECHCG; format: in vivo, Echinochloa crus-galli; conditions: Echinochloa crus-galli, 504 h
Summary of the method: as §1

DIGSA [6] = assay: Pre-emergence herbicidal action against DIGSA; format: in vivo, Digitaria sanguinalis; conditions: Digitaria sanguinalis, 504 h; for pest or weed control at 20 g/ha: dosage 20 g/ha; for pest or weed control at 80 g/ha: dosage 80 g/ha
Summary of the method: as §1

POLCO [7] = assay: Pre-emergence herbicidal action against POLCO; format: in vivo, Polygonum convolvulus; conditions: Fallopia convolvulus, 504 h, dosage 80 g/ha
Summary of the method: as §1

ABUTH [8] = assay: Post-emergence herbicidal action against ABUTH; format: in vivo, Abutilon theophrasti; conditions: Abutilon theophrasti, 504 h, visual assessment about 3 weeks after treatment vs untreated controls; for pest or weed control at 5 g/ha: dosage 5 g/ha; for pest or weed control at 20 g/ha: dosage 20 g/ha
Summary of the method: as §2

AMARE [9] = assay: Pre-emergence herbicidal action against AMARE; format: in vivo, Amaranthus retroflexus; conditions: Amaranthus retroflexus, 504 h, scored visually after 3 weeks vs untreated controls, 100% = plants have died, 0% = like control plants
Summary of the method: as §1

POLCO [10] = assay: Post-emergence herbicidal action against POLCO; format: in vivo, Polygonum convolvulus; conditions: Fallopia convolvulus, 504 h, dosage 20 g/ha
Summary of the method: as §2

SETVI [11] = assay: Post-emergence herbicidal action against SETVI; format: in vivo, Setaria viridis; conditions: Setaria viridis, 504 h; for pest or weed control at 5 g/ha: dosage 5 g/ha; for pest or weed control at 20 g/ha: dosage 20 g/ha
Summary of the method: as §2

VIOTR [12] = assay: Post-emergence herbicidal action against VIOTR; format: in vivo, Viola tricolor; conditions: Viola tricolor, 504 h
Summary of the method: as §2

MATIN [13] = assay: Post-emergence herbicidal action against MATIN; format: in vivo, Matricaria inodora; conditions: Tripleurospermum inodorum, 504 h; for pest or weed control at 5 g/ha: dosage 5 g/ha; for pest or weed control at 20 g/ha: dosage 20 g/ha
Summary of the method: as §2

PHBPU = assay: Pre-emergence herbicidal action against PHBPU; format: in vivo, Pharbitis purpurea; conditions: Ipomoea purpurea, 504 h; for pest or weed control at 80 g/ha: dosage 80 g/ha
Summary of the method: as §1

VIOTR [14] = assay: Pre-emergence herbicidal action against VIOTR; format: in vivo, Viola tricolor; conditions: Viola tricolor, 504 h; for pest or weed control at 20 g/ha: dosage 20 g/ha; for pest or weed control at 80 g/ha: dosage 80 g/ha
Summary of the method: as §1

VERPE [15] = assay: Pre-emergence herbicidal action against VERPE; format: in vivo, Veronica persica; conditions: Veronica persica, 504 h; for pest or weed control at 80 g/ha: dosage 80 g/ha
Summary of the method: as §1

SETVI [16] = assay: Pre-emergence herbicidal action against SETVI; format: in vivo, Setaria viridis; conditions: Setaria viridis, 504 h; for pest or weed control at 80 g/ha: dosage 80 g/ha
Summary of the method: as §1

VERPE [17] = assay: Post-emergence herbicidal action against VERPE; format: in vivo, Veronica persica; conditions: Veronica persica, 504 h
Summary of the method: as §2

DIGSA [18] = assay: Post-emergence herbicidal action against DIGSA; format: in vivo, Digitaria sanguinalis; conditions: Digitaria sanguinalis, 504 h
Summary of the method: as §2

ALOMY [19] = assay: Pre-emergence herbicidal action against ALOMY; format: in vivo, Alopecurus myosuroides; conditions: Alopecurus myosuroides, 504 h, pre-emergence
Summary of the method: as §1

ALOMY [20] = assay: Post-emergence herbicidal action against ALOMY; format: in vivo, Alopecurus myosuroides; conditions: Alopecurus myosuroides, 504 h, dosage 20 g/ha, visual assessment about 3 weeks after treatment vs untreated controls
Summary of the method: as §2

Structure (SMILES)	pest or weed control at 20 g/ha (MATIN [1])	pest or weed control at 80 g/ha (MATIN [1])	pest or weed control at 80 g/ha (AVEFA)	pest or weed control at 80 g/ha (ABUTH [2])	pest or weed control at 20 g/ha (ABUTH [2])	pest or weed control at 20 g/ha (AMARE [3])	pest or weed control at 5 g/ha (ECHCG [4])	pest or weed control at 20 g/ha (ECHCG [4])	pest or weed control at 80 g/ha (ECHCG [5])	pest or weed control at 20 g/ha (DIGSA [6])	pest or weed control at 80 g/ha (DIGSA [6])	pest or weed control at 80 g/ha (POLCO [7])	pest or weed control at 5 g/ha (ABUTH [8])	pest or weed control at 20 g/ha (ABUTH [8])	pest or weed control at 20 g/ha (AMARE [9])	pest or weed control at 80 g/ha (AMARE [9])	pest or weed control at 20 g/ha (POLCO [10])	pest or weed control at 5 g/ha (SETVI [11])	pest or weed control at 20 g/ha (SETVI [11])	pest or weed control at 20 g/ha (VIOTR [12])	also measured
Cn1nnnc1NC(=O)c1ccc(C(F)F)c(C(=O)NC2CC2)c1C1CC1 [Example 1-306]	100%	100%	80%	100%	100%	100%	90%	90%	100%	100%	100%	90%	80%	80%	100%	100%	80%	90%	90%	90%	pest or weed control at 5 g/ha (MATIN [13]): 90%; pest or weed control at 20 g/ha (MATIN [13]): 90%; pest or weed control at 80 g/ha (PHBPU): 90%; pest or weed control at 20 g/ha (VIOTR [14]): 100%; pest or weed control at 80 g/ha (VIOTR [14]): 100%; pest or weed control at 80 g/ha (VERPE [15]): 90%; pest or weed control at 80 g/ha (SETVI [16]): 100%; pest or weed control at 20 g/ha (VERPE [17]): 90%; pest or weed control at 5 g/ha (DIGSA [18]): 90%; pest or weed control at 20 g/ha (DIGSA [18]): 90%
CCNC(=O)c1c(C(F)(F)F)ccc(C(=O)Nc2nnnn2CC)c1C1CC1 [Example 2-287]	100%	100%	80%	100%	100%	100%	80%	80%	100%	100%	100%	80%	80%	80%	100%	100%	100%	80%	90%	90%	pest or weed control at 80 g/ha (ALOMY [19]; 80 g/ha, scored visually after 3 weeks vs untreated controls (100% = plants have died, 0% = like control plants)): 90%; pest or weed control at 20 g/ha (ALOMY [19]; 20 g/ha, scored visually after 3 weeks, 100% = plants have died, 0% = like control plants): 80%; pest or weed control at 20 g/ha (ECHCG [5]; 20 g/ha): 90%; pest or weed control at 20 g/ha (ALOMY [20]): 90%; pest or weed control at 5 g/ha (VIOTR [12]; 5 g/ha): 80%; pest or weed control at 5 g/ha (MATIN [13]): 90%; pest or weed control at 20 g/ha (MATIN [13]): 90%; pest or weed control at 20 g/ha (PHBPU; dosage 20 g/ha): 80%; pest or weed control at 80 g/ha (PHBPU): 80%; pest or weed control at 20 g/ha (VIOTR [14]): 100%; pest or weed control at 80 g/ha (VIOTR [14]): 100%; pest or weed control at 20 g/ha (VERPE [15]; dosage 20 g/ha): 90%; pest or weed control at 80 g/ha (VERPE [15]): 100%; pest or weed control at 20 g/ha (SETVI [16]; dosage 20 g/ha): 90%; pest or weed control at 80 g/ha (SETVI [16]): 100%; pest or weed control at 5 g/ha (VERPE [17]; 5 g/ha): 80%; pest or weed control at 20 g/ha (VERPE [17]): 100%; pest or weed control at 5 g/ha (DIGSA [18]): 90%; pest or weed control at 20 g/ha (DIGSA [18]): 90%
